{"source": "patent US4762706A", "about": "“Peptide antibodies and their use in detecting oncogene products” (priority 1984, dated 1988)", "target": "T1, v-Ki-ras p21 protein (serine at position 12) (Kirsten murine sarcoma virus, UniProt P01117)", "T1 construct": "made in house; host or cells: E. coli (plasmid pINIII-ras, a gift; lac promoter, IPTG induction)", "T1 sequence (P01117 whole entry)": "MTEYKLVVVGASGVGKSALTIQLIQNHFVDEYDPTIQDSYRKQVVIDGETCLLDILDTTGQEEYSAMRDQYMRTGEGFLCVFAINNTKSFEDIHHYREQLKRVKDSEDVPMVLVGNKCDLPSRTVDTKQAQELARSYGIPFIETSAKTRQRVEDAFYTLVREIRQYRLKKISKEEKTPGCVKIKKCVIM", "experiment": "Inhibition by nucleotide of anti-p21ser antibody binding to p21 protein (immunoprecipitation under mild denaturation conditions)", "details": "high concentrations (10 mM) of nucleotide", "description": "In this example the antibody was used to immunoprecipitate a form of p21 protein which is known to contain serine at position 12. This protein is a E. coli expressing v-Ki-ras p21 protein (produced using a plasmid pINIII-ras which was constructed by and was a gift from M. Inouge of SUNY at Stony Brook, New York in which transcription was directed by the lac promoter--see Masui, Y. et al., in Experimental Manipulation of Gene Expression, M. Inogue, ed., Academic Press, N.Y., pp 15-32 (1983). Expression of this protein was induced by treatment of the cultures with 2 mM isopropylthiogalactoside (IPTG). Cell pellets were resuspended in 50 mM glucose, 25 mM Tris.HCl pH 8.0, 10 mM EDTA, 2 mg/ml lysozyme, and 0.01% aprotinin, and were then incubated for 30 minutes at 4° C. Triton X-100 was added to 1% concentration for 5 additional minutes. Following a 10-minute 15,000 xg spin, the supernatant was spun for an additional 2 hours at 150,000 xg to prepare the cleared lysate. One hundred-μl samples of the cleared cell lysate were incubated with 40 μCi ^32 P gamma-labeled guanosine triphosphate (GTP) for 30 minutes at 37° C. […] Immune complexes were washed with 0.5% NP40, 1M LiCl, 50 mM Tris.HCl, pH 8.0, 120 mM NaCl, and analyzed by SDS-PAGE. […]"}
{"compound": "Nc1nc2c(ncn2[C@@H]2O[C@H](COP(=O)(O)OP(=O)(O)OP(=O)(O)O)[C@@H](O)[C@H]2O)c(=O)[nH]1", "note": "[GTP, guanosine triphosphate]", "values": [{"measurement": "inhibition of the binding of anti-p21ser antibodies to p21 protein", "value": "substantially inhibit"}]}
